Reference: US20190144828A1, “HAEMATOPOIETIC STEM/PROGENITOR CELLS” (priority 2016, published 2019)

How the values were obtained:
[1] = test system: HOXA and CDX genes; test: RT-PCR of HOXA and CDX genes in differentiating hESC cultures supplemented with SB, CHIR or SB/CHIR; type: cell-based, human; conditions: added from differentiation days 2 to 4; RT-PCR at d4 and d7
Procedure: Total RNA was prepared from ES cells and dissociated EBs using the Qiagen RNeasy kit or the Bioline Isolate II RNA Mini Kit according to the manufacturers' instructions. cDNA was reverse transcribed using random hexamer priming and Superscript III (Invitrogen) or Tetro (Bioline) cDNA synthesis kits as specified by the manufacturer. Human RUNX1 isoform specific primers (Table 1) were based on those designed for mouse Runx1 previously. For other genes, TaqMan gene expression probes and reagents (Applied Biosystems) were used for quantitative real-time PCR analysis and GAPDH was used as the reference gene to normalize data.
The HES3 and H9 human embryonic stem cell lines used in these studies were obtained from ES Cell International (now owned by Biotime Inc) and WiCell. The human ESC work was approved by the Monash Medical Centre and Royal Children's Hospital Human Research Ethics Committees. Culture and enzymatic passaging of hESC lines was performed as reported in Ng et al. Nature Protocols 3, 768-776 (2008). […] Brightfield and fluorescence images comparing RUNX1C^GFP/w with RUNX1C^GFP/GFP cell cultures shown in FIG. 1b were representative of 3 independent experiments. […]

[2] = test system: anterior and posterior HOXA genes; test: HOXA gene expression in hPSCs with EC23 and/or SB CHIR (FIG. 29); type: cell-based, human; conditions: d2-4
Procedure: hPSCs were differentiated in medium supplemented with CHIR99021, BMP4, VEGF, SCF, ACTIVIN A and FGF2 (denoted CH BVSAF in FIG. 29) from d0-4, or with an additional pulse of SB431542 and CHIR99021 (denoted SB CHIR in FIG. 29) from d2-4. Cultures also were treated with the retinoic acid analogue EC23 at 0, 10^−5 M or 10^−7 M concentrations from d2-4 (denoted 0, 10-5 and 10-7, respectively in FIG. 29). […] Gene expression was normalized to GAPDH and is shown in arbitrary units in FIG. 29.

Compound	HOXA gene expression compared with control cultures [1]	effectiveness on HOXA gene induction ([2]; 10^−5 M)	effectiveness on HOXA gene induction ([2]; 10^−7 M)
Cc1c[nH]c(-c2cnc(NCCNc3ccc(C#N)cn3)nc2-c2ccc(Cl)cc2Cl)n1 [CHIR, CHIR99021]	increased HOXA9 and HOXA10 expression	–	–
CC1(C)CCC(C)(C)c2cc(C#Cc3ccc(C(=O)O)cc3)ccc21 [EC23]	–	effective	effective
NC(=O)c1ccc(-c2nc(-c3ccc4c(c3)OCO4)c(-c3ccccn3)[nH]2)cc1 [SB, SB431542]	increased HOXA3, HOXA7 and HOXA9 expression	–	–
